Laboratory results: ChEMBL document CHEMBL3045821, “Microwave-assisted synthesis of 3-indolyl substituted 4H-chromenes catalyzed by DMAP and their antimicrobial activity” (2012)
≈ marks a conversion by molar mass, not a printed value.

Columns and labels:
Type in all cases: functional
[1] = test system: Aspergillus fumigatus; assay: Antifungal activity against Aspergillus fumigatus MTCC 3008 after 24 to 48 hr by broth microdilution method
[2] = test system: Candida albicans; assay: Antifungal activity against Candida albicans MTCC 227 after 24 to 48 hr by broth microdilution method
[3] = test system: Clostridium tetani; assay: Antibacterial activity against Clostridium tetani MTCC 449 after 24 to 48 hr by broth microdilution method
[4] = test system: Vibrio cholerae; assay: Antibacterial activity against Vibrio cholerae MTCC 3906 after 24 to 48 hr by broth microdilution method
[5] = test system: Bacillus subtilis; assay: Antibacterial activity against Bacillus subtilis MTCC 441 after 24 to 48 hr by broth microdilution method
[6] = test system: Salmonella typhi; assay: Antibacterial activity against Salmonella enterica subsp. enterica serovar Typhi MTCC 98 after 24 to 48 hr by broth microdilution method
[7] = test system: Streptococcus pneumoniae; assay: Antibacterial activity against Streptococcus pneumoniae MTCC 1936 after 24 to 48 hr by broth microdilution method
[8] = test system: Escherichia coli; assay: Antibacterial activity against Escherichia coli MTCC 443 after 24 to 48 hr by broth microdilution method

Compound | MIC [1] | MIC [2] | MIC [3] | MIC [4] | MIC [5] | MIC [6] | MIC [7] | MIC [8]
COC1=CC(=O)C[C@@H](C)[C@]12Oc1c(Cl)c(OC)cc(OC)c1C2=O [GRISEOFULVIN] | 100 µg/mL (≈ 283 µM) | 500 µg/mL (≈ 1420 µM) | – | – | – | – | – | –
CC1(C)CC(=O)C2=C(C1)OC(N)=C(C#N)C2c1c(-c2ccc(Br)cc2)[nH]c2ccccc12 (stereo not drawn) | 200 µg/mL (≈ 410 µM) | 1000 µg/mL (≈ 2050 µM) | 500 µg/mL (≈ 1020 µM) | 500 µg/mL (≈ 1020 µM) | 200 µg/mL (≈ 410 µM) | 250 µg/mL (≈ 512 µM) | 125 µg/mL (≈ 256 µM) | 200 µg/mL (≈ 410 µM)
CS(=O)(=O)c1ccc(-c2[nH]c3ccccc3c2C2C(C#N)=C(N)OC3=C2C(=O)CCC3)cc1 (stereo not drawn) | 1000 µg/mL (≈ 2180 µM) | 1000 µg/mL (≈ 2180 µM) | 100 µg/mL (≈ 218 µM) | 500 µg/mL (≈ 1090 µM) | 500 µg/mL (≈ 1090 µM) | 100 µg/mL (≈ 218 µM) | 500 µg/mL (≈ 1090 µM) | 100 µg/mL (≈ 218 µM)
CC1(C)CC(=O)C2=C(C1)OC(N)=C(C#N)C2c1c(-c2ccccc2)[nH]c2ccccc12 (stereo not drawn) | 500 µg/mL (≈ 1220 µM) | 1000 µg/mL (≈ 2440 µM) | 200 µg/mL (≈ 488 µM) | 200 µg/mL (≈ 488 µM) | 200 µg/mL (≈ 488 µM) | 500 µg/mL (≈ 1220 µM) | 200 µg/mL (≈ 488 µM) | 500 µg/mL (≈ 1220 µM)
CC1(C)CC(=O)C2=C(C1)OC(N)=C(C#N)C2c1c(-c2ccc([N+](=O)[O-])cc2)[nH]c2ccccc12 (stereo not drawn) | 250 µg/mL (≈ 550 µM) | 200 µg/mL (≈ 440 µM) | 200 µg/mL (≈ 440 µM) | 250 µg/mL (≈ 550 µM) | 500 µg/mL (≈ 1100 µM) | 500 µg/mL (≈ 1100 µM) | 250 µg/mL (≈ 550 µM) | 250 µg/mL (≈ 550 µM)
CCn1cc(C(=O)O)c(=O)c2cc(F)c(N3CCNCC3)cc21 [NORFLOXACIN] | – | – | 50 µg/mL (≈ 157 µM) | 10 µg/mL (≈ 31.3 µM) | 100 µg/mL (≈ 313 µM) | 10 µg/mL (≈ 31.3 µM) | 10 µg/mL (≈ 31.3 µM) | 10 µg/mL (≈ 31.3 µM)
Cc1ccc(-c2[nH]c3ccccc3c2C2C(C#N)=C(N)OC3=C2C(=O)CCC3)cc1 (stereo not drawn) | 1000 µg/mL (≈ 2530 µM) | 1000 µg/mL (≈ 2530 µM) | 500 µg/mL (≈ 1260 µM) | 250 µg/mL (≈ 632 µM) | 500 µg/mL (≈ 1260 µM) | 250 µg/mL (≈ 632 µM) | 500 µg/mL (≈ 1260 µM) | 200 µg/mL (≈ 506 µM)
N#CC1=C(N)OC2=C(C(=O)CCC2)C1c1c(-c2ccccc2)[nH]c2ccccc12 (stereo not drawn) | 500 µg/mL (≈ 1310 µM) | 1000 µg/mL (≈ 2620 µM) | 500 µg/mL (≈ 1310 µM) | 250 µg/mL (≈ 655 µM) | 500 µg/mL (≈ 1310 µM) | 500 µg/mL (≈ 1310 µM) | 500 µg/mL (≈ 1310 µM) | 500 µg/mL (≈ 1310 µM)
Cc1ccc(-c2[nH]c3ccccc3c2C2C(C#N)=C(N)OC3=C2C(=O)CC(C)(C)C3)cc1 (stereo not drawn) | 1000 µg/mL (≈ 2360 µM) | 500 µg/mL (≈ 1180 µM) | 250 µg/mL (≈ 590 µM) | 500 µg/mL (≈ 1180 µM) | 250 µg/mL (≈ 590 µM) | 250 µg/mL (≈ 590 µM) | 200 µg/mL (≈ 472 µM) | 500 µg/mL (≈ 1180 µM)
CC1(C)CC(=O)C2=C(C1)OC(N)=C(C#N)C2c1c(-c2ccc(F)cc2)[nH]c2ccccc12 (stereo not drawn) | 250 µg/mL (≈ 585 µM) | 1000 µg/mL (≈ 2340 µM) | 200 µg/mL (≈ 468 µM) | 500 µg/mL (≈ 1170 µM) | 100 µg/mL (≈ 234 µM) | 250 µg/mL (≈ 585 µM) | 200 µg/mL (≈ 468 µM) | 200 µg/mL (≈ 468 µM)
O=C(O)c1cn(C2CC2)c2cc(N3CCNCC3)c(F)cc2c1=O [CIPROFLOXACIN] | – | – | – | 25 µg/mL (≈ 75.4 µM) | – | 25 µg/mL (≈ 75.4 µM) | 50 µg/mL (≈ 151 µM) | 25 µg/mL (≈ 75.4 µM)
N#CC1=C(N)OC2=C(C(=O)CCC2)C1c1c(-c2ccc(Cl)cc2)[nH]c2ccccc12 (stereo not drawn) | 1000 µg/mL (≈ 2400 µM) | > 1000 µg/mL | 500 µg/mL (≈ 1200 µM) | 100 µg/mL (≈ 240 µM) | 200 µg/mL (≈ 481 µM) | 125 µg/mL (≈ 301 µM) | 200 µg/mL (≈ 481 µM) | 100 µg/mL (≈ 240 µM)
CC1(C)S[C@@H]2[C@H](NC(=O)[C@H](N)c3ccccc3)C(=O)N2[C@H]1C(=O)O [AMPICILLIN] | – | – | 250 µg/mL (≈ 715 µM) | 100 µg/mL (≈ 286 µM) | 250 µg/mL (≈ 715 µM) | 100 µg/mL (≈ 286 µM) | 100 µg/mL (≈ 286 µM) | 100 µg/mL (≈ 286 µM)
COc1ccc(-c2[nH]c3ccccc3c2C2C(C#N)=C(N)OC3=C2C(=O)CC(C)(C)C3)cc1 (stereo not drawn) | > 1000 µg/mL | 500 µg/mL (≈ 1140 µM) | 500 µg/mL (≈ 1140 µM) | 500 µg/mL (≈ 1140 µM) | 500 µg/mL (≈ 1140 µM) | 500 µg/mL (≈ 1140 µM) | 500 µg/mL (≈ 1140 µM) | 500 µg/mL (≈ 1140 µM)
COc1ccc(-c2[nH]c3ccccc3c2C2C(C#N)=C(N)OC3=C2C(=O)CCC3)cc1 (stereo not drawn) | 1000 µg/mL (≈ 2430 µM) | 500 µg/mL (≈ 1220 µM) | 100 µg/mL (≈ 243 µM) | 200 µg/mL (≈ 486 µM) | 250 µg/mL (≈ 608 µM) | 200 µg/mL (≈ 486 µM) | 200 µg/mL (≈ 486 µM) | 100 µg/mL (≈ 243 µM)
N#CC1=C(N)OC2=C(C(=O)CCC2)C1c1c(-c2ccc([N+](=O)[O-])cc2)[nH]c2ccccc12 (stereo not drawn) | 500 µg/mL (≈ 1170 µM) | 200 µg/mL (≈ 469 µM) | 250 µg/mL (≈ 586 µM) | 500 µg/mL (≈ 1170 µM) | 250 µg/mL (≈ 586 µM) | 500 µg/mL (≈ 1170 µM) | 250 µg/mL (≈ 586 µM) | 500 µg/mL (≈ 1170 µM)
NYSTATIN | 100 µg/mL | 100 µg/mL | – | – | – | – | – | –
CC1(C)CC(=O)C2=C(C1)OC(N)=C(C#N)C2c1c(-c2ccc(S(C)(=O)=O)cc2)[nH]c2ccccc12 (stereo not drawn) | 500 µg/mL (≈ 1030 µM) | 250 µg/mL (≈ 513 µM) | 125 µg/mL (≈ 256 µM) | 500 µg/mL (≈ 1030 µM) | 250 µg/mL (≈ 513 µM) | 200 µg/mL (≈ 410 µM) | 500 µg/mL (≈ 1030 µM) | 100 µg/mL (≈ 205 µM)
CC1(C)CC(=O)C2=C(C1)OC(N)=C(C#N)C2c1c(-c2ccc(Cl)cc2)[nH]c2ccccc12 (stereo not drawn) | > 1000 µg/mL | > 1000 µg/mL | 250 µg/mL (≈ 563 µM) | 100 µg/mL (≈ 225 µM) | 250 µg/mL (≈ 563 µM) | 200 µg/mL (≈ 451 µM) | 250 µg/mL (≈ 563 µM) | 62.5 µg/mL (≈ 141 µM)
N#CC1=C(N)OC2=C(C(=O)CCC2)C1c1c(-c2ccc(Br)cc2)[nH]c2ccccc12 (stereo not drawn) | 500 µg/mL (≈ 1090 µM) | 500 µg/mL (≈ 1090 µM) | 200 µg/mL (≈ 434 µM) | 200 µg/mL (≈ 434 µM) | 200 µg/mL (≈ 434 µM) | 200 µg/mL (≈ 434 µM) | 100 µg/mL (≈ 217 µM) | 125 µg/mL (≈ 272 µM)
N#CC1=C(N)OC2=C(C(=O)CCC2)C1c1c(-c2ccc(F)cc2)[nH]c2ccccc12 (stereo not drawn) | 1000 µg/mL (≈ 2500 µM) | 500 µg/mL (≈ 1250 µM) | 500 µg/mL (≈ 1250 µM) | 250 µg/mL (≈ 626 µM) | 200 µg/mL (≈ 501 µM) | 500 µg/mL (≈ 1250 µM) | 200 µg/mL (≈ 501 µM) | 500 µg/mL (≈ 1250 µM)
